# Values of other authors in patent publication US20070213390A1, “HMGCoA reductase inhibitor-angiotensin converting enzyme inhibitor compounds” (pSivida Inc., priority 2005, published 2007).
# Biological target: T1, HMGR (HMGCoA reductase) (Homo sapiens, UniProt P04035)
# T1 sequence (P04035 426-888 limits assumed): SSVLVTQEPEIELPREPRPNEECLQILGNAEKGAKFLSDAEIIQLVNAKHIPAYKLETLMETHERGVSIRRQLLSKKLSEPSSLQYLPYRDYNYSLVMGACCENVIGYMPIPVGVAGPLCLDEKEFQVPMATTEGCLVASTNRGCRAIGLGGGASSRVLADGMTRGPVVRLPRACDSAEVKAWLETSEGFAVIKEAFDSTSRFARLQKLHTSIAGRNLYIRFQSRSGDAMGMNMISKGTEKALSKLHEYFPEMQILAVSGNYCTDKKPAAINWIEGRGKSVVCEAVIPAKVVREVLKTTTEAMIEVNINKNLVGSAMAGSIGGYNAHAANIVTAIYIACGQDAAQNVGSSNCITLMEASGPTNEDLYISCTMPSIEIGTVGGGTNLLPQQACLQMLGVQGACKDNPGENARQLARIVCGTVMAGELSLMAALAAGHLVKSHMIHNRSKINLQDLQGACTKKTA
# Conditions: substrate of HMGR; read-out: Michaelis constant, Km, for HMG-CoA
compound,measurement,value
"CC(O)(CC(=O)O)CC(=O)SCCNC(=O)CCNC(=O)[C@H](O)C(C)(C)COP(=O)(O)OP(=O)(O)OC[C@H]1O[C@@H](n2cnc3c(N)ncnc32)[C@H](O)[C@@H]1OP(=O)(O)O (stereo partly shown) [HMG-CoA, 3-hydroxy-3-methylglutaryl CoA]",Km,4 µM
